Results published in US12006330B2, “Substituted macrocyclic compounds and related methods of treatment” (Alkermes, Inc., priority 2020, dated 2024).

Columns and labels:
MDR1 = assay: MDCK-MDR1 permeability assay; format: in vitro ADME; settings: dog, MDCK-MDR1, MDCK-MDR1 cells; for efflux ratio at 2 h, 3 μM: Papp B→A divided by Papp A→B, read-out: Efflux ratio (ER); for Papp A→B at 2 h, 3 μM: test compound 3 μM, 2 hours at 37 degrees C, apical to basolateral
How it was run: (§1)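 Test compound at 3 μM in HBSS was dosed apical-to-basolateral (with 100 μM Lucifer Yellow) and basolateral-to-apical across MDCK-MDR1 monolayers at 37 °C for 2 h. Receiver and donor samples were quantified by LC-MS/MS. Papp = dQ/dt×1/A×C0, efflux ratio = Papp(B→A)/Papp(A→B), and percent recovery was also derived.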

Sprague-Dawley rats = assay: Assessment of wake promotion in Sprague-Dawley rats (EEG/EMG); format: in vivo, rat; settings: male Sprague-Dawley rats; PO; 3 mpk; dosed at ZT5; 6-hour post-dose period
Description: Wake promotion was assessed using electroencephalography (EEG) and electromyography (EMG) in adult male Sprague-Dawley rats. All rats (Charles River Laboratories, Raleigh, NC, USA) were intraperitoneally implanted with telemetry devices (F50-EEE, Data Sciences International Inc., MN, USA) under isoflurane anesthesia. For EEG, stainless steel screws were implanted over frontal cortex and parietal cortex, and reference screws were placed over cerebellum. Additionally, an electrode was placed in neck muscle for EMG. Rats were given carprofen post-surgery and underwent a 7 to 10-day recovery period. Rats habituated to the experimental room for 7 days and were maintained on a 12-hour light-dark cycle.
EEG and EMG data were recorded using the DSI telemetry system and Ponemah software (Data Sciences International Inc., MN, USA). Sleep-wake stages were scored both manually and with Somnivore, a supervised machine learning software platform, in 10 second epochs. Records were visually inspected as needed post-processing.
All test compounds were dissolved in 5% DMSO and suspended in 95% saline with 0.5% methylcellulose and 0.5% tween. […] Unless otherwise indicated, all compounds were dosed orally. Recordings for each rat were initiated immediately after dosing and lasted for 6 hours post-dose.
Two key endpoints include wakefulness time and cortical activation time. Wakefulness time is derived from the sleep-wake stage analysis. Cortical activation time is based on the duration in which frontal gamma oscillatory activity (30-100 Hz), a key feature of wakefulness, was elevated relative to a pre-treatment baseline. Mean cortical activation time was computed relative to vehicle treatment for the 6-hour post-dose period.

[1] = Hepatocytes stability assay (human hepatocytes); format: in vitro ADME; settings: both sexes, human, cryopreserved hepatocytes, cryopreserved human hepatocytes (pool of 50 mixed gender); 1 μM test compound; 1×10^6 cell/mL; 37 degrees C; read-out: CLint (μL/min/million cells)
How it was run: (§2)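 Compound at 1 μM (0.1% DMSO) was incubated with cryopreserved pooled human hepatocytes, 1×10^6 cells/mL in Krebs-Henseleit buffer, at 37 °C, sampled up to 240 min. Parent depletion by LC-MS/MS; half-life from first-order decay gave CLint, scaled to hepatic clearance by well-stirred model (fu assumed 1) and extraction ratio.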

human hepatocytes = assay: Hepatocytes stability assay (human hepatocytes); format: in vitro ADME; settings: for Extraction Ratio (ER): human hepatocytes, scaled hepatic clearance divided by liver blood flow (well-stirred model, fu assumed unity); for CLint (μL/min/million cells): cryopreserved human hepatocytes (pool of 50 mixed gender), 1 μM test compound, 1×10^6 cell/mL, 37 degrees C
How it was run: as §2

MDCK-MDR1 cells = assay: MDCK-MDR1 permeability assay; format: in vitro ADME; settings: MDCK-MDR1 cells; for Efflux ratio (ER): Papp B→A divided by Papp A→B, 3 μM, 2 hours; for Papp A → B (10^−6 cm/s): test compound 3 μM, 2 hours at 37 degrees C, apical to basolateral
How it was run: as §1

[2] = target: T1, human orexin-2 receptor (OX2R) (Homo sapiens, UniProt O43614); assay: Human OX2R IP1 assay; format: cell-based; settings: T-Rex CHO cells stably overexpressing human OX2R; IP1 accumulation; 1 hr at 37 degrees C; mean EC50
T1 construct: expressed in transfected cells
T1 sequence (O43614 1-444): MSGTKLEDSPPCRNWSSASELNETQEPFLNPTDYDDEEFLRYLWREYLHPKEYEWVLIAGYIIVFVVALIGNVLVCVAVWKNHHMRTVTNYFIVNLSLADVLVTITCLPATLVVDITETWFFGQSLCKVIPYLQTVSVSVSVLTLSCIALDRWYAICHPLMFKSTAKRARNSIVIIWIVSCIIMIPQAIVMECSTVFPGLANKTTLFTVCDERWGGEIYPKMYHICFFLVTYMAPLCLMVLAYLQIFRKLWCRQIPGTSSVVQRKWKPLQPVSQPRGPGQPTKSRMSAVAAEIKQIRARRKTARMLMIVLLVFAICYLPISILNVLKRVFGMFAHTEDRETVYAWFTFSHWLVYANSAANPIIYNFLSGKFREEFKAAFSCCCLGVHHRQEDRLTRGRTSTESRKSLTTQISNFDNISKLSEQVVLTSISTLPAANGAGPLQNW
How it was run: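 T-Rex CHO cells stably expressing human OX2R, doxycycline-induced (1 μg/mL) overnight, treated with compounds 1 h at 37 °C in pH 7.4 buffer with 50 mM LiCl. IP1 accumulation read by HTRF competitive immunoassay after 1 h at room temperature; agonist EC50 reported as mean ± S.E.M.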

Row | Compound | efflux ratio at 2 h, 3 μM (MDR1) | Papp A→B at 2 h, 3 μM (MDR1) | hepatocyte CLint at 1 μM [1] | Extraction Ratio (ER) (human hepatocytes) | Efflux ratio (ER) (MDCK-MDR1 cells) | Papp A → B (10^−6 cm/s) (MDCK-MDR1 cells) | EC50 [2] | CLint (μL/min/million cells) (human hepatocytes) | Mean cortical activation time (% vehicle treatment) (Sprague-Dawley rats)
1 | O=C1COc2nccnc2[C@H]2CC[C@H](CC2)OCC2[C@@H](NS(=O)(=O)C3CC3)CCCN12 (stereo in doubt) [Compound 65] | > 100 | 0.1 ×10⁻⁶ cm/s | < 1.9 µL/min/1e6 cells | <0.22 |  |  |  |  | 121.28 % vehicle treatment
2 | CC(C)S(=O)(=O)N[C@H]1CCCN2C(=O)COc3nccnc3[C@H]3CC[C@H](CC3)OCC12 (stereo in doubt) [Compound 66] | 88 | 0.22 ×10⁻⁶ cm/s | < 1.9 µL/min/1e6 cells | <0.22 |  |  |  |  | 141.30 % vehicle treatment
3 | Cc1ncnc2c1[C@H]1CC[C@H](CC1)OC[C@H]1[C@@H](NS(C)(=O)=O)CCCN1C(=O)CO2 (stereo in doubt) [Compound 72] |  |  |  | <0.22 | 49 | <0.091 10^−6 cm/s | < 10 nM | <1.9 μL/min/million cells | 
4 | Cc1ccnc2c1[C@H]1CC[C@H](CC1)OCC1[C@@H](NS(=O)(=O)C(C)C)CCN1C(=O)CO2 (stereo in doubt) [Compound 93] | 11 | 4.7 ×10⁻⁶ cm/s | 20 µL/min/1e6 cells | 0.75 |  |  |  |  | 138.14 % vehicle treatment
5 | CS(=O)(=O)N[C@H]1CCCN2C(=O)COc3ccc(O)cc3[C@H]3CC[C@H](CC3)OCC12 (stereo in doubt) [Compound 96] | 9.2 | 0.53 ×10⁻⁶ cm/s | 2.3 µL/min/1e6 cells | 0.25 |  |  |  |  | 74.48 % vehicle treatment
6 | O=C1COc2ncncc2[C@H]2CC[C@H](CC2)OCC2[C@@H](NS(=O)(=O)C3CC3)CCCN12 (stereo in doubt) [Compound 97] | 44 | 0.42 ×10⁻⁶ cm/s | 5.2 µL/min/1e6 cells | 0.43 |  |  |  |  | 79.25 % vehicle treatment
7 | CC(C)S(=O)(=O)N[C@H]1CCN2C(=O)COc3ncccc3[C@H]3CC[C@H](CC3)OCC12 (stereo in doubt) [Compound 101] | 14 | 3.9 ×10⁻⁶ cm/s | 19 µL/min/1e6 cells | 0.74 |  |  |  |  | 109.66 % vehicle treatment

Further lines, with some results ahead:

Row | efflux ratio at 2 h, 3 μM (MDR1) | Papp A→B at 2 h, 3 μM (MDR1) | hepatocyte CLint at 1 μM [1] | Extraction Ratio (ER) (human hepatocytes) | Efflux ratio (ER) (MDCK-MDR1 cells) | Papp A → B (10^−6 cm/s) (MDCK-MDR1 cells) | EC50 [2] | CLint (μL/min/million cells) (human hepatocytes) | Compound | Mean cortical activation time (% vehicle treatment) (Sprague-Dawley rats)
8 | 72 | 0.24 ×10⁻⁶ cm/s | 3.9 µL/min/1e6 cells | 0.37 |  |  |  |  | Cc1ncnc2c1[C@H]1CC[C@H](CC1)OCC1[C@@H](NS(=O)(=O)C3CC3)CCCN1C(=O)CO2 (stereo in doubt) [Compound 68] | 157.14 % vehicle treatment
9 |  |  |  | 0.76 | >100 | 0.23 10^−6 cm/s | < 10 nM | 21 μL/min/million cells | O=C1COc2ccccc2[C@H]2CC[C@H](CC2)OCC2[C@@H](NS(=O)(=O)C3CCOC3)CCCN12 (stereo in doubt) [Compound 73] | 
10 |  |  |  | 0.61 | 48 | 0.62 10^−6 cm/s | < 10 nM | 11 μL/min/million cells | Cc1ccnc2c1[C@H]1CC[C@H](CC1)OCC1[C@@H](NS(=O)(=O)C3CCOC3)CCCN1C(=O)CO2 (stereo in doubt) [Compound 90] | 
11 | 18 | 3.4 ×10⁻⁶ cm/s | 24 µL/min/1e6 cells | 0.78 |  |  |  |  | Cc1ccnc2c1[C@H]1CC[C@H](CC1)OCC1[C@@H](NS(=O)(=O)C3CC3)CCN1C(=O)CO2 (stereo in doubt) [Compound 92] | 97.94 % vehicle treatment
